Test results as given in US10450344B2, “Antibody-binding polypeptide, antibody-binding fusion polypeptide, and adsorption material” (FUJIFILM Corporation, priority 2014, dated 2019).
Square brackets hold non-standard residues; d marks the D form. Peptide text beside a SMILES is read from it. PEG8 = NCCOCCOCCOCCOCCOCCOCCOCCOCCC(=O)O

How the values were obtained:
human IgG antibody = experiment: SPR evaluation of antibody binding properties of ligand immobilized on CM5 sensor chip; conditions: for dissociation rate Koff: SPR, human IgG antibody, 25° C., HEPES buffer, fitting with BIAevaluation4.1
Method: The association rate Kon [nM/s] and the dissociation rate Koff [l/s ] of an antibody were calculated from the binding reaction curve, and also the dissociation constant Kd [nM] in the binding reaction of polypeptide 1 with a human IgG antibody was calculated.

[1] = Evaluation of alkali resistance (1N NaOH, then antibody-binding amount by SPR); type: physicochemical
Method: The synthesized polypeptide 1 was immersed in 1N NaOH at room temperature for 1 hour, and then the ligand was immobilized as in the above (1).

[2] = target: Bovine Serum Albumin (BSA) (Bos taurus, UniProt P02769); experiment: SPR evaluation of selectivity (binding of BSA to immobilized carrier)
Method: A commercially available CM5 (carboxymethyl dextran introduction type, manufactured by GE Healthcare) sensor chip was set on a surface plasmon resonance (SPR) apparatus Biacore (manufactured by GE Healthcare), HEPES buffer (20 mM HEPES-HCl, 150 mM NaCl, pH 7.4) for SPR was stabilized at a flow rate of 10 μL/min, and 70 μL of a mixed aqueous solution of 0.2 M 1-ethyl-3-(3-dimethylaminopropyl)carbodiimide (EDC, manufactured by Wako Pure Chemical Industries, Ltd.) and 0.04 M N-hydroxysuccinimide (NHS, manufactured by Wako Pure Chemical Industries, Ltd.) was added. Then, 500 μL of a sample solution of polypeptide 1 diluted to 100 μM with the above-mentioned HEPES buffer and treated with a 0.20 μm PTFE filter (manufactured by [sequence]) was supplied to a carrier sample, blocked by an ethanolamine solution, and washed with an aqueous sodium hydroxide solution, followed by immobilization to prepare an immobilized carrier.
1000 nM of Bovine Serum Albumin (BSA, manufactured by Sigma-Aldrich) was added to the immobilized carrier A prepared in the above (1) at 25° C. over 10 min, and the binding amount after 10 minutes in HEPES buffer was measured by SPR.

[3] = Evaluation of temporal stability (solution stored at 40° C. for one month, then antibody-binding amount by SPR)
Method: A solution of the synthesized polypeptide 1 was stored in a constant-temperature zone (40° C.) for one month, and then the ligand was immobilized as in the above (1).

Chain of Bovine Serum Albumin (BSA) (P02769 25-607): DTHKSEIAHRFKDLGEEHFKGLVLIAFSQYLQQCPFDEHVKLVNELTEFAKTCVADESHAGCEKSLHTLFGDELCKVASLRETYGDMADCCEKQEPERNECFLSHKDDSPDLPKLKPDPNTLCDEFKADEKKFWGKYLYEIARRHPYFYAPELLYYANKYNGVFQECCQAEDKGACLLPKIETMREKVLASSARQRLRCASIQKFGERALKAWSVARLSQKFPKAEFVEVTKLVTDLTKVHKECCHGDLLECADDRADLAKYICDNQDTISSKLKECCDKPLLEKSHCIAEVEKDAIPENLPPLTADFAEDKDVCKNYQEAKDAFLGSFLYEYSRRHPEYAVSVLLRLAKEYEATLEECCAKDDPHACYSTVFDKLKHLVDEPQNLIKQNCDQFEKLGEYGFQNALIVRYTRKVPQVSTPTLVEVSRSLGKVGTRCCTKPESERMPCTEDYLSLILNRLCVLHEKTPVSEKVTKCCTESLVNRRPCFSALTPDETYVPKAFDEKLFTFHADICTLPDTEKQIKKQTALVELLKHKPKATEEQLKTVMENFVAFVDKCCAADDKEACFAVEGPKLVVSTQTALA

Row | Molecule | dissociation rate Koff (human IgG antibody) [s⁻¹] | also measured
1 | H-KKKEQQNAFYKKK-OH [Example 6] | 0.00015 | 
2 | H-EQQNAFYGGGKGGGEQQNAFY-OH [Example 8] | 0.00015 | 
3 | H-EAQQSAFY-OH [Example 14] | 0.00014 | 
4 | H-DAQQSAFY-OH [Example 17] | 0.00013 | 
5 | H-EQQSAFYEILH-OH [Example 11] | 0.00018 | 
6 | H-DQQSAFYEILH-OH [Example 13] | 0.00015 | 
7 | H-EQNAFY-OH [Example 9, EQNAFY] | 0.00017 | 
8 | H-EAQQNAFY-OH [Example 16] | 0.00019 | 
9 | H-DQQSAFY-OH [Example 12, DQQSAFY] | 0.00015 | 
10 | H-EQQNAFYEILH-OH [Example 3] | 0.00017 | 
11 | CC(=O)N[C@@H](CCC(=O)O)C(=O)N[C@@H](CCC(N)=O)C(=O)N[C@@H](CCC(N)=O)C(=O)N[C@@H](CC(N)=O)C(=O)N[C@@H](C)C(=O)N[C@@H](Cc1ccccc1)C(=O)N[C@@H](Cc1ccc(O)cc1)C(=O)NCCOCCOCCOCCOCCOCCOCCOCCOCCC(=O)N[C@@H](CCCCN)C(=O)NCCOCCOCCOCCOCCOCCOCCOCCOCCC(=O)N[C@@H](CCC(=O)O)C(=O)N[C@@H](CCC(N)=O)C(=O)N[C@@H](CCC(N)=O)C(=O)N[C@@H](CC(N)=O)C(=O)N[C@@H](C)C(=O)N[C@@H](Cc1ccccc1)C(=O)N[C@@H](Cc1ccc(O)cc1)C(=O)O [Example 25, Ac-EQQNAFY-(peg)8-K-(peg)8-EQQNAFY] (Ac-EQQNAFY[PEG8]K[PEG8]EQQNAFY-OH) | 0.00019 | 
12 | NCCNc1nc(NCCc2ccc(O)cc2)nc(Nc2ccccc2)n1 [Comparative Example 3] | 0.00065 | antibody binding properties (in words) (human IgG antibody): insufficient; alkali resistance (in words) [1]: sufficient; selectivity (in words) [2]: insufficient; temporal stability (in words) [3]: sufficient
13 | C[C@H](NC(=O)[C@H](CC(N)=O)NC(=O)[C@H](CCC(N)=O)NC(=O)[C@H](CCC(N)=O)NC(=O)[C@H](CCC(=O)O)NC(=O)CCOCCOCCOCCOCCOCCOCCOCCOCCN)C(=O)N[C@@H](Cc1ccccc1)C(=O)N[C@@H](Cc1ccc(O)cc1)C(=O)N[C@@H](CCC(=O)O)C(=O)O [Example 24] (H-[PEG8]EQQNAFYE-OH) | 0.00013 | 
14 | H-DQSAFY-OH [Example 18, DQSAFY] | 0.00019 | 
15 | H-QQNAFYEI-OH [Comparative Example 4, reference compound] | 0.00024 | antibody binding properties (in words) (human IgG antibody): poor; selectivity (in words) [2]: poor
16 | H-EQQNAFYEILHL-OH [Example 4] | 0.00013 | 
17 | H-EGQNAFY-OH [Example 5, EGQNAFY] | 0.0002 | 
18 | H-EQQNAFY-OH [Example 1, EQQNAFY] | 0.00017 | 
19 | Comparative Example 1: wild-type protein A (manufactured by Repligen Corporation) [reference compound] | 0.00025 | 
20 | Ac-EQQNAFYK-OH [Example 20] | 0.00014 | 
21 | H-EQSAFY-OH [Example 15, EQSAFY] | 0.00014 | 
22 | Ac-KKKEQQNAFYKKK-OH [Example 22] | 0.00015 | 
23 | H-EQQSAFY-OH [Example 10, EQQSAFY] | 0.00015 | 
24 | H-KKKEQQNAFYEILHKKK-OH [Example 7] | 0.00016 | 
25 | H-EQQNAFY-NH2 [Example 19, EQQNAFY-NH2] | 0.00015 | 
26 | H-KEQQNAFY-OH [Example 2] | 0.00013 | 
27 | Ac-KKKEQQNAFYEILHKKK-OH [Example 23] | 0.00016 | 
28 | Ac-EQQNAFYEILHK-OH [Example 21] | 0.00016 | 
